# Experimental data taken from patent US8563542B2 (Cyclacel Limited, priority 2007, dated 2013).
# Biological target: PLK1 (Homo sapiens, UniProt P53350)
# Assay: PLK1 protein kinase assay (CDC25C phosphorylation, [γ-32P]-ATP)
# Type: biochemical
# Settings: Table 2, PLK1 IC50; class symbols; read-out: PLK1 IC50
# Sequence of PLK1 (P53350 whole entry): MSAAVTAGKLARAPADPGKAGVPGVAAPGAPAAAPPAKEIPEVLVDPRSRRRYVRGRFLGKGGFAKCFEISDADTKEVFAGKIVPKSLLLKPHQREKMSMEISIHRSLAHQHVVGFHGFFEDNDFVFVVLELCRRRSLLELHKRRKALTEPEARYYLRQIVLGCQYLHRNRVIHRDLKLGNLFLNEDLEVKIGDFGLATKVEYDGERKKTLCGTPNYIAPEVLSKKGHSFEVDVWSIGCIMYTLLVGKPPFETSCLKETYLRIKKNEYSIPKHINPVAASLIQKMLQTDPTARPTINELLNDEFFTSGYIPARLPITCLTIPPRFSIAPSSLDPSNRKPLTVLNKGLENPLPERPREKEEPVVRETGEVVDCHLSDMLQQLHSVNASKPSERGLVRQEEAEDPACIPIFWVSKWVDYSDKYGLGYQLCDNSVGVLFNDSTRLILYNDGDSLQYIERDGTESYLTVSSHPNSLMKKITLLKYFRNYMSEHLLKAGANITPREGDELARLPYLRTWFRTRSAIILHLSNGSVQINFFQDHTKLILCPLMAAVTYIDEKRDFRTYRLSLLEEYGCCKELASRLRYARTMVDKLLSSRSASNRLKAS
row,IC50,SMILES
1,< 0.1 µM,"COc1cc(C(=O)NCC(C)(C)CN(C)C)ccc1Nc1ncc2c(n1)N(C1CCCC1)CC1(CC1)C(=O)N2C [compound 256, 4-(9-Cyclopentyl-5-methyl-6-oxo-6,7,8,9-tetrahydro-5H-pyrimido[4,5-b][1,4]diazepin-3,1′-cyclopropane-2-ylamino)-N-(3-dimethylamino-2,2-dimethyl-propyl)-3-methoxy-benzamide]"
2,< 0.1 µM,"COc1cc(C(=O)NCc2ccncc2)ccc1Nc1ncc2c(n1)N(C1CCCC1)CC1(CC1)C(=O)N2C [compound 258, 4(9-Cyclopentyl-5-methyl-6-oxo-6,7,8,9-tetrahydro-5H-pyrimido[4,5-b][1,4]diazepin-3,1′-cyclopropane-2-ylamino)-3-methoxy-N-pyridin-4-ylmethyl-benzamide]"
3,< 0.1 µM,"COc1cc(C(=O)NCc2cccn2C)ccc1Nc1ncc2c(n1)N(C1CCCC1)CC1(CC1)C(=O)N2C [compound 259, 4-(9-Cyclopentyl-5-methyl-6-oxo-6,7,8,9-tetrahydro-5H-pyrimido[4,5-b][1,4]diazepin-3,1′-cyclopropane-2-ylamino)-3-methoxy-N-(1-methyl-1 H-pyrrol-2-ylmethyl)-benzamide]"
4,< 0.1 µM,"COc1cc(C(=O)NC2CCCC2)ccc1Nc1ncc2c(n1)N(C1CCCC1)CC1(CC1)C(=O)N2C [compound 260, N-Cyclopentyl-4-(9-Cyclopentyl-5-methyl-6-oxo-6,7,8,9-tetrahydro-5H-spiro[pyrimido[4,5-b][1,4]diazepin-3,1′-cyclopropane]-2-ylamino)-3-methoxy-benzamide]"
5,< 0.1 µM,"CCc1cc(C(=O)NC2CCN(C)CC2)ccc1Nc1ncc2c(n1)N(C1CCCC1)CC1(CC1)C(=O)N2C [compound 261, 4-(9-Cyclopentyl-5-methyl-6-oxo-6,7,8,9-tetrahydro-5H-spiro(pyrimido[4,5-b][1,4]diazepin-3,1′-cyclopropane]-2-ylamino)-3-ethyl-N-(1-methyl-piperidin-4-yl)-benzamide]"
6,< 0.1 µM,"COc1cc(C(=O)NC2CCN(C)CC2)ccc1Nc1ncc2c(n1)N(CC1CC1)CC1(CC1)C(=O)N2C [compound 262, 4-(9-Cyclopropylmethyl-5-methyl-6-oxo-6,7,8,9-tetrahydro-5H-pyrimido[4,5-b][1,4]diazepin-3,1′-cyclopropane-2-ylamino)-3-methoxy-N-(1-methyl-piperidin-4-yl)-benzamide]"
7,< 1 µM,"COc1ccc(C(=O)NCCOCCO)cc1Nc1ncc2c(n1)N(C1CCCC1)CCC(=O)N2C [compound 263, 3-(9-Cyclopentyl-5-methyl-6-oxo-6,7,8,9-tetrahydro-5H-pyrimido[4,5-b][1,4]diazepin-2-ylamino)-N-[2-(2-hydroxy-ethoxy)-ethyl]-4-methoxy-benzamide]"
8,< 1 µM,"CONC(=O)c1ccc(OC)c(Nc2ncc3c(n2)N(C2CCCC2)CCC(=O)N3C)c1 [compound 264, 3-(9-Cyclopentyl-5-methyl-6-oxo-6,7,8,9-tetrahydro-5H-pyrimido[4,5-b][1,4]diazepin-2-ylamino)-4,N-dimethoxy-benzamide]"
9,< 1 µM,"COc1ccc(C(=O)NC2CCN(Cc3ccccc3)C2)cc1Nc1ncc2c(n1)N(C1CCCC1)CCC(=O)N2C (stereo not shown) [compound 265, N-(1-Benzyl-pyrrolidin-3-yl)-3-(9-cyclopentyl-5-methyl-6-oxo-6,7,8,9-tetrahydro-5H-pyrimido[4,5-b][1,4]diazepin-2-ylamino)-4-methoxy-benzamide]"
10,< 1 µM,"COc1ccc(C(=O)NCCN2CCOCC2)cc1Nc1ncc2c(n1)N(C1CCCC1)CCC(=O)N2C [compound 266, 3-(9-Cyclopentyl-5-methyl-6-oxo-6,7,8,9-tetrahydro-5H-pyrimido[4,5-b][1,4]diazepin-2-ylamino)-4-methoxy-N-(2-morpholin-4-yl-ethyl)-benzamide]"
11,< 1 µM,"COc1ccc(C(=O)NCCc2c[nH]cn2)cc1Nc1ncc2c(n1)N(C1CCCC1)CCC(=O)N2C [compound 267, 3-(9-Cyclopentyl-5-methyl-6-oxo-6,7,8,9-tetrahydro-5H-pyrimido[4,5-b][1,4]diazepin-2-ylamino)-N-[2-(1H-imidazol-4-yl)-ethyl]-4-methoxy-benzamide]"
12,< 1 µM,"COc1ccc(C(=O)NCc2cccn2C)cc1Nc1ncc2c(n1)N(C1CCCC1)CCC(=O)N2C [compound 268, 3-(9-Cyclopentyl-5-methyl-6-oxo-6,7,8,9-tetrahydro-5H-pyrimido[4,5-b][1,4]diazepin-2-ylamino)-4-methoxy-N-(1-methyl-1H-pyrrol-2-ylmethyl)-benzamide]"
13,< 1 µM,"COc1ccc(C(=O)NCC2CCCCN2C)cc1Nc1ncc2c(n1)N(C1CCCC1)CCC(=O)N2C (stereo not shown) [compound 269, 3-(9-Cyclopentyl-5-methyl-6-oxo-6,7,8,9-tetrahydro-5H-pyrimido[4,5-b][1,4]diazepin-2-ylamino)-4-methoxy-N-(1-methyl-piperidin-2-ylmethyl)-benzamide]"
14,< 1 µM,"COCCNC(=O)c1ccc(OC)c(Nc2ncc3c(n2)N(C2CCCC2)CCC(=O)N3C)c1 [compound 270, 3-(9-Cyclopentyl-5-methyl-6-oxo-6,7,8,9-tetrahydro-5H-pyrimido[4,5-b][1,4]diazepin-2-ylamino)-4-methoxy-N-(2-methoxy-ethyl)-benzamide]"
15,< 1 µM,"COc1ccc(C(=O)NC2CCN(Cc3ccccc3)CC2)cc1Nc1ncc2c(n1)N(C1CCCC1)CCC(=O)N2C [compound 271, N-(1-Benzyl-piperidin-4-yl)-3-(9-cyclopentyl-5-methyl-6-oxo-6,7,8,9-tetrahydro-5H-pyrimido[4,5-b][1,4]diazepin-2-ylamino)-4-methoxy-benzamide]"
16,< 1 µM,"COc1ccc(C(=O)NCCCCO)cc1Nc1ncc2c(n1)N(C1CCCC1)CCC(=O)N2C [compound 272, 3-(9-Cyclopentyl-5-methyl-6-oxo-6,7,8,9-tetrahydro-5H-pyrimido[4,5-b][1,4]diazepin-2-ylamino)-N-(4-hydroxy-butyl)-4-methoxy-benzamide]"
17,< 1 µM,"COc1ccc(C(=O)NCc2ccco2)cc1Nc1ncc2c(n1)N(C1CCCC1)CCC(=O)N2C [compound 273, 3-(9-Cyclopentyl-5-methyl-6-oxo-6,7,8,9-tetrahydro-5H-pyrimido[4,5-b][1,4]diazepin-2-ylamino)-N-furan-2-ylmethyl-4-methoxy-benzamide]"
18,< 1 µM,"CN1CCC(NC(=O)c2ccc(Nc3ncc4c(n3)N(C3CCCC3)CC3(CC3)C(=O)N4C)c(O)c2)CC1 [compound 274, 4-(9-Cyclopentyl-5-methyl-6-oxo-6,7,8,9-tetrahydro-5H-spiro[pyrimido[4,5-b][1,4]diazepin-3,1′-cyclopropane]-2-ylamino)-3-hydroxy-N-(1-methyl-piperidin-4-yl)-benzamide]"
19,< 1 µM,"COc1cc(C(=O)O)ccc1Nc1ncc2c(n1)N(CC1CC1)CC(C)(C)C(=O)N2C [compound 275, 4-(9-Cyclopropylmethyl-5,7,7-trimethyl-6-oxo-6,7,8,9-tetrahydro-5H-pyrimido[4,5-b][1,4]diazepin-2-ylamino)-3-methoxy-benzoic acid]"
20,< 1 µM,"COc1cc(C(=O)NC2CCN(C)CC2)ccc1Nc1ncc2c(n1)N(CC1CC1)CC(C)(C)C(=O)N2C [compound 276, 4-(9-Cyclopropylmethyl-5,7,7-trimethyl-6-oxo-6,7,8,9-tetrahydro-5H-pyrimido[4,5-b][1,4]diazepin-2-ylamino)-3-methoxy-N-(1-methyl-piperidin-4-yl)-benzamide]"
21,< 10 µM,"COc1cc(C(=O)NC2CCN(C)CC2)ccc1Nc1ncc2c(n1)N(c1ccccc1OC)CCC(=O)N2C [compound 277, 3-Methoxy-4-[9-(2-methoxy-phenyl)-5-methyl-6-oxo-6,7,8,9-tetrahydro-5H-pyrimido[4,5-b][1,4]diazepin-2-ylamino]-N-(1-methyl-piperidin-4-yl)-benzamide]"
22,< 10 µM,"COc1cc(C(=O)NC2CC(C)(C)N(C)C(C)(C)C2)ccc1Nc1ncc2c(n1)N(c1ccccc1OC)CCC(=O)N2C [compound 278, 3-Methoxy-4-[9-(2-methoxy-phenyl)-5-methyl-6-oxo-6,7,8,9-tetrahydro-5H-pyrimido[4,5-b][1,4]diazepin-2-ylamino]-N-(1,2,2,6,6-pentamethyl-piperidin-4-yl)-benzamide]"
23,< 10 µM,"Cc1cc(C(=O)O)ccc1Nc1ncc2c(n1)N(C1CCCC1)CC1(CC1)C(=O)N2C [compound 280, 4-(9-Cyclopentyl-5-methyl-6-oxo-6,7,8,9-tetrahydro-5H-pyrimido[4,5-b][1,4]diazepin-3,1′-cyclopropane-2-ylamino)-3-methyl-benzoic acid]"
24,< 0.1 µM,"CN1C(=O)C2(CC2)CN(C2CCCC2)c2nc(Nc3ccc(C(=O)O)cc3F)ncc21 [compound 283, 4-(9-Cyclopentyl-5-methyl-6-oxo-6,7,8,9-tetrahydro-5H-spiro[pyrimido[4,5-b][1,4]diazepin-3,1′-cyclopropane]-2-ylamino)-3-fluorobenzoic acid]"
25,< 0.1 µM,"CN1CCC(NC(=O)c2ccc(Nc3ncc4c(n3)N(C3CCCC3)CC3(CC3)C(=O)N4C)c(OC(F)(F)F)c2)CC1 [compound 284, 4-(9-Cyclopentyl-5-methyl-6-oxo-6,7,8,9-tetrahydro-5H-spiro[pyrimido[4,5-b][1,4]diazepin-3,1′-cyclopropane]-2-ylamino)-3-trifluoromethoxy-N-(1-methyl-piperidin-4-yl)-benzamide]"
26,< 1 µM,Cc1cc(C(=O)NC2CCN(C)CC2)ccc1Nc1ncc2c(n1)N(C1CCCC1)CC1(CC1)C(=O)N2C [compound 301]
27,< 1 µM,"COc1cc(C(=O)NC2CCN(C)CC2)ccc1Nc1ncc2c(n1)N(CC(C)C)CCC(=O)N2C [compound 302, 4-(9-Isobutyl-5-methyl-6-oxo-6,7,8,9-tetrahydro-5H-pyrimido[4,5-b][1,4]diazepin-2-ylamino)-3-methoxy-N-(1-methyl-piperidin-4-yl)-benzamide]"

row,SMILES,IC50
1,"COc1cc(C(=O)NC2CN3CCC2CC3)ccc1Nc1ncc2c(n1)N(c1ccccc1OC)CCC(=O)N2C (stereo not shown) [compound 279, N-(1-Aza-bicyclo[2.2.2]oct-3-yl)-3-methoxy-4-[9-(2-methoxy-phenyl)-5-methyl-6-oxo-6,7,8,9-tetrahydro-5H-pyrimido[4,5-b][1,4]diazepin-2-ylamino]-benzamide]",< 10 µM
